# Results taken from US9955691B2, “Macrocyclic picolinamides as fungicides” (DOW AGROSCIENCES LLC, priority 2014, dated 2018).
# Where two headings read alike, the source gives them in different places.
# Tests used:
# [1] = tested on: Mycosphaerella graminicola; Anamorph: Septoria tritici; assay: Fungicidal activity: Leaf Blotch of Wheat (SEPTTR); type: in vivo; conditions: Zymoseptoria tritici, Low Volume (121.5 g/H), wheat leaf blotch
# Procedure: Evaluation of Fungicidal Activity: Leaf Blotch of Wheat (Mycosphaerella graminicola; Anamorph: Septoria tritici; Bayer Code […]) Technical grades of materials were dissolved in acetone, which were then mixed with nine volumes of water containing 110 ppm Triton X-100. The fungicide solutions were applied onto wheat seedlings using an automated booth sprayer to run-off. All sprayed plants were allowed to air dry prior to further handling. All fungicides were evaluated using the aforementioned method for their activity vs. all target diseases, unless stated otherwise. Wheat leaf blotch and brown rust activity were also evaluated using track spray applications, in which case the fungicides were formulated as EC formulations, containing 0.1% Trycol 5941 in the spray solutions. Wheat plants (variety Yuma) were grown from seed in a greenhouse in 50% mineral soil/50% soil-less Metro mix until the first leaf was fully emerged, with 7-10 seedlings per pot. These plants were inoculated with an aqueous spore suspension of Septoria tritici either prior to or after fungicide treatments. After inoculation the plants were kept in 100% relative humidity (one day in a dark dew chamber followed by two to three days in a lighted dew chamber at 20° C.) to permit spores to germinate and infect the leaf. The plants were then transferred to a greenhouse set at 20° C. for disease to develop. When disease symptoms were fully expressed on the 1st leaves of untreated plants, infection levels were assessed on a scale of 0 to 100 percent disease severity. Percent disease control was calculated using the ratio of disease severity on treated plants relative to untreated plants.
# Puccinia triticina = assay: Fungicidal activity: Wheat Brown Rust (PUCCRT); type: in vivo; conditions: Low Volume (121.5 g/H)
# Procedure: Technical grades of materials were dissolved in acetone, which were then mixed with nine volumes of water containing 110 ppm Triton X-100. The fungicide solutions were applied onto wheat seedlings using an automated booth sprayer to run-off. All sprayed plants were allowed to air dry prior to further handling. All fungicides were evaluated using the aforementioned method for their activity vs. all target diseases, unless stated otherwise. Wheat leaf blotch and brown rust activity were also evaluated using track spray applications, in which case the fungicides were formulated as EC formulations, containing 0.1% Trycol 5941 in the spray solutions. Wheat plants (variety Yuma) were grown from seed in a greenhouse in 50% mineral soil/50% soil-less Metro mix until the first leaf was fully emerged, with 7-10 seedlings per pot. These plants were inoculated with an aqueous spore suspension of Septoria tritici either prior to or after fungicide treatments. After inoculation the plants were kept in 100% relative humidity (one day in a dark dew chamber followed by two to three days in a lighted dew chamber at 20° C.) to permit spores to germinate and infect the leaf. The plants were then transferred to a greenhouse set at 20° C. for disease to develop. When disease symptoms were fully expressed on the 1st leaves of untreated plants, infection levels were assessed on a scale of 0 to 100 percent disease severity. Percent disease control was calculated using the ratio of disease severity on treated plants relative to untreated plants. Evaluation of Fungicidal Activity: Wheat Brown Rust (Puccinia triticina; Synonym: Puccinia recondite f. Sp. Tritici; Bayer Code PUCCRT) Wheat plants (variety Yuma) were grown from seed in a greenhouse in 50% mineral soil/50% soil-less Metro mix until the first leaf was fully emerged, with 7-10 seedlings per pot. These plants were inoculated with an aqueous spore suspension of Puccinia triticina either prior to or after fungicide treatments. After inoculation the plants were kept in a dark dew room at 22° C. with 100% relative humidity overnight to permit spores to germinate and infect the leaf. The plants were then transferred to a greenhouse set at 24° C. for disease to develop. Fungicide formulation, application and disease assessment followed the procedures as described in the Example A.
# [2] = 24 h, 1 Day Protectant, read-out: SEPTTR 1 DP disease control
# [3] = 72 h, 3 Day Curative, read-out: SEPTTR 3 DC disease control
# [4] = 24 h, 1 Day Protectant, read-out: PUCCRT 1 DP disease control
# [5] = 72 h, 3 Day Curative, read-out: PUCCRT 3 DC disease control
Compound,"pest or weed control at 121.5 g/ha [1, 2] [%]","pest or weed control at 121.5 g/ha [1, 3] [%]",pest or weed control at 121.5 g/ha (Puccinia triticina; [4]) [%],pest or weed control at 121.5 g/ha (Puccinia triticina; [5]) [%]
CCC[C@H]1COC[C@H](NC(=O)c2nccc(OC)c2OCOC(=O)C(C)C)C(=O)O[C@@H](C)[C@@H]1CC(C)C [compound 65],> 70,> 70,> 70,> 70
COc1ccnc(C(=O)N[C@H]2COC[C@H](Cc3ccc(Cl)cc3)[C@@H](CC(C)C)[C@H](C)OC2=O)c1OCOC(C)=O [compound 73],> 70,> 70,> 70,< 70
CCOCC(=O)OCOc1c(OC)ccnc1C(=O)N[C@H]1COC[C@H](Cc2ccc(Cl)cc2)[C@@H](CC(C)C)[C@H](C)OC1=O [compound 74],> 70,> 70,> 70,< 70
COc1ccnc(C(=O)N[C@H]2COC[C@H](Cc3ccc(Cl)cc3)[C@@H](CC(C)C)[C@H](C)OC2=O)c1OC(C)=O [compound 75],> 70,> 70,> 70,< 70
COc1ccnc(C(=O)N[C@H]2COC[C@H](CCCc3ccccc3)[C@@H](Cc3ccc(OC(F)(F)F)cc3)[C@H](C)OC2=O)c1OCOC(C)=O [compound 76],> 70,> 70,> 70,< 70
CCOCC(=O)OCOc1c(OC)ccnc1C(=O)N[C@H]1COC[C@H](CCCc2ccccc2)[C@@H](Cc2ccc(OC(F)(F)F)cc2)[C@H](C)OC1=O [compound 77],< 70,< 70,< 70,< 70
COc1ccnc(C(=O)N[C@H]2COC[C@H](Cc3ccc(C(F)(F)F)cc3)[C@@H](Cc3ccc(F)cc3)[C@H](C)OC2=O)c1OCOC(C)=O [compound 78],< 70,< 70,< 70,< 70
COc1ccnc(C(=O)N[C@H]2COC[C@H](Cc3ccc(C(F)(F)F)cc3)[C@@H](Cc3ccc(F)cc3)[C@H](C)OC2=O)c1OC(C)=O [compound 79],> 70,< 70,> 70,< 70
COc1ccnc(C(=O)N[C@H]2COC[C@H](Cc3ccc(C(F)(F)F)cc3)[C@@H](Cc3ccc(F)cc3)[C@H](C)OC2=O)c1OCOC(=O)C(C)C [compound 80],< 70,< 70,> 70,< 70
COc1ccnc(C(=O)N[C@H]2COC[C@H](CCCc3ccccc3)[C@@H](Cc3ccc(OC(F)(F)F)cc3)[C@H](C)OC2=O)c1OC(C)=O [compound 81],< 70,< 70,< 70,< 70
COc1ccnc(C(=O)N[C@H]2COC[C@H](Cc3ccccc3)[C@@H](CCC(C)C)[C@H](C)OC2=O)c1OCOC(=O)C(C)C [compound 82],< 70,< 70,< 70,< 70
CCOCC(=O)OCOc1c(OC)ccnc1C(=O)N[C@H]1COC[C@H](Cc2ccccc2)[C@@H](CCC(C)C)[C@H](C)OC1=O [compound 83],> 70,> 70,> 70,> 70
COc1ccnc(C(=O)N[C@H]2COC[C@H](Cc3ccccc3)[C@@H](CCC(C)C)[C@H](C)OC2=O)c1OC(C)=O [compound 84],> 70,> 70,> 70,> 70
